Usually melting point stands for the temperature of the solid-liquid transition.

Each structure is given as a SMILES string. Structures can show the parent of a compound that is named as a salt.

`c1ccc(C2CCN(CCc3ccc(COc4ccc5c(c4)OCO5)cc3)CC2)cc1` (as salt: HCl) [Compound 28, 1-(2-(4-((Benzo[d][1,3]dioxol-5-yloxy)methyl)phenyl)ethyl)-4-phenylpiperidine] displayed a melting point of 183 to 184 °C. In turn, `OC1(c2ccccc2)CCN(CCc2ccc(COc3ccc4c(c3)OCO4)cc2)CC1` (as salt: HCl) [Compound 29, 1-(2-(4-((Benzo[d][1,3]dioxol-5-yloxy)methyl)phenyl)ethyl)-4-phenylpiperidin-4-ol] registered a melting point of 194 to 195 °C.

(Values after article PMC6271825, “Synthesis and Cytotoxic Activity Evaluation of Novel Arylpiperazine Derivatives on Human Prostate Cancer Cell Lines” (Molecules, 2014).)
